Test results from US20220241416A1, “METHODS FOR THE IDENTIFICATION OF SARM1 NADASE ACTIVITY INHIBITORS AND USES THEREOF” (Bar Ilan University, priority 2021, published 2022).
pKi: −log10 of the molar value. Like-named read-outs stand apart in the source and are kept apart here.

Columns and labels:
hSARM1 [1] = biological target: T1, hSARM1 (Homo sapiens, UniProt Q6SZW1); assay: In vitro hSARM1 NADase activity, Resasurin assay; assay type: biochemical
T1 construct: hSARM1w.t; (26ERL . . . GPT724) that was not mutated in E642, was also expressed and isolated; 6xHis (N); TEV cleavage site (N); made in house; host or cells: HEK293F suspension cells
T1 sequence (Q6SZW1 with tags, fused parts or gaps): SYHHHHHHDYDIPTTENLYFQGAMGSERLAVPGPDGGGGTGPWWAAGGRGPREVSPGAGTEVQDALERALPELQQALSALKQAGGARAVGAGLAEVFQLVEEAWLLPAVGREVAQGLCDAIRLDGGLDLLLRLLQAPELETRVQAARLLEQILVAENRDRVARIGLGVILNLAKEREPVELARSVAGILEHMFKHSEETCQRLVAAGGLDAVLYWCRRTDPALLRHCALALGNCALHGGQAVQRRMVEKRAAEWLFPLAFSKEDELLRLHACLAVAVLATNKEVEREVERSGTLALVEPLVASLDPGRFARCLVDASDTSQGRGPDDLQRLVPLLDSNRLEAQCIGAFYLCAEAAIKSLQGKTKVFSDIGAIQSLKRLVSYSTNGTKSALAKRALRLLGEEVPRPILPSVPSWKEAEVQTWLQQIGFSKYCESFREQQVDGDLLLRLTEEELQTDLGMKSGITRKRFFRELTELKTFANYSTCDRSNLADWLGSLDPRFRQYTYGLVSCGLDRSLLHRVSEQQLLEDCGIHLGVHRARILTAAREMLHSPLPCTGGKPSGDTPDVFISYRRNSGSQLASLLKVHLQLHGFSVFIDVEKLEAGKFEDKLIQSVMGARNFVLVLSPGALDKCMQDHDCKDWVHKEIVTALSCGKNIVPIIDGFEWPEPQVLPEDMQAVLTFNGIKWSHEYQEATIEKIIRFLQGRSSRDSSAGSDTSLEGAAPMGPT
Experimental: For quantitation of hSARM1 NADase activity and the inhibitory effect of selected compounds (FIG. 6F; FIG. 7A-7B), purified hSARM1w.t. and hSARM1E642Q proteins were first diluted to 400 nM concentration in 25 mM HEPES pH 7.5, 150 mM NaCl, and then mixed in 25° C. with 1 uM of NAD+(in the same buffer) with a 1:1 v/v ratio. All inhibitors were diluted with the same buffer, and the pH values were measured and if necessary titrated to 7.5. Inhibitors were pre-incubated for 20 min with hSARM1 in 25° C. before mixing with NAD+. At designated time points, reactions were quenched by placing the reaction tubes in 95° C. for 2 min. Measurement of NAD+ concentrations was made by a modified enzymatic coupled cycling assay (K. S. Kanamori et al., NAD. Bio Protoc 8, (2018)). The reaction mix, which includes 100 mM Phosphate buffer pH=8, 0.78% ethanol, 4 uM FMN (Riboflavin 5′-monophosphate sodium salt hydrate), 27.2 U/ml Alcohol dehydrogenase (SIGMA), 1.8 U/ml Diaphorase (SIGMA) and freshly dissolved (in DDW) 8 uM Resasurin (SIGMA), was added to each sample at 1:1 (v/v) ratio and then transferred to 384-well black plate (Corning). Fluorescent data was measured using a SynergyHI (BioTek) plate reader at 554-nm excitation and 593-nm emission wavelengths. Standard curve equation for calculation of NAD+ concentration was created for each assay from constant NAD+ concentrations.

zfSARM1 = biological target: T2, zfSARM1 (Danio rerio, UniProt F1QWA8); assay: Kinetic parameters of zfSARM1, substrate inhibition fit; assay type: biochemical, Zebrafish
T2 sequence (F1QWA8 1-713): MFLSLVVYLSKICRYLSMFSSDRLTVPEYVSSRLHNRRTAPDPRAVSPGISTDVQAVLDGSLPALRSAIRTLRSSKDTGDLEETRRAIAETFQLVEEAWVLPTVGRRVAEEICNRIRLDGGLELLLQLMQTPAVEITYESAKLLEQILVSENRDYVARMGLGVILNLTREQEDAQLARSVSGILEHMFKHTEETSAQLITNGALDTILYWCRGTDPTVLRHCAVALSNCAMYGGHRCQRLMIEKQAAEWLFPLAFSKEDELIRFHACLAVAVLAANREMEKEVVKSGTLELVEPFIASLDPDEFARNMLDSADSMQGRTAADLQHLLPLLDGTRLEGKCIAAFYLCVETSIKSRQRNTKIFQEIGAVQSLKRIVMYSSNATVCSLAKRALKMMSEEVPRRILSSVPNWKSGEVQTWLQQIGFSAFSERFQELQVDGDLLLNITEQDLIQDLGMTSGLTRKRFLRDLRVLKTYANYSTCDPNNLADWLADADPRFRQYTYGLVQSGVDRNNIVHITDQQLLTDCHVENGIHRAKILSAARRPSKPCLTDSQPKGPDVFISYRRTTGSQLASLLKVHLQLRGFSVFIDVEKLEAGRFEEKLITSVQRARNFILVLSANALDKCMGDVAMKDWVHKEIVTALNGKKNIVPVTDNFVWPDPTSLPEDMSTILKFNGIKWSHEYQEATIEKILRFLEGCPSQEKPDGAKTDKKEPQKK
Experimental: FIG. 14C. […] The kinetic parameters were determined from plots of reaction velocity of NAD+ consumption versus substrate (NAD+) concentration and then fitted to the Michaelis-Menten equation (Km and Vmax) or substrate inhibition equation (Ki) using non-linear curve fit in GraphPad Prism. Kcat was calculated by dividing the Vmax with protein molar concentration.
For Vmax and Km determination, the NADase activity assay was performed with several different NAD+ substrate concentrations and sampled in constant time points. For each NAD+ concentration, linear increase zone was taken for slope (V0) calculation. All data were than fitted to the Michaelis-Menten equation using non-linear curve fit in GraphPad Prism software. Kcat was calculated by dividing the Vmax with protein molar concentration.

hSARM1 [2] = biological target: T1, hSARM1; assay: eNAD-based NADase assay; assay type: biochemical; settings: 1:10 eNAD:NAD+; 400 nM enzyme; activity decreases at higher concentrations
Experimental: FIG. 7D: Rate of change in nucleotide fluorescence under steady-state conditions of eNAD hydrolysis by hSARM1. Reactions were initiated by mixing 400 nM enzyme with different concentrations of 1:10 eNAD+: NAD+(mol/mol) mixtures. Three repeats, standard deviation error bars.
Serial dilutions were made with 25 mM HEPES pH 7.5, 150 mM NaCl buffer and the final mix was transferred to 384-well black plate (Corning). Reaction started by the addition of hSARM1 to a final concentration 400 nM. Then, eNAD degradation rate was monitored by fluorescence reading (330-nm excitation and 405-nm emission wavelengths) of the plate using a SynergyHI (BioTek) in 25° C. for 3 hours. For each NAD+ concentration, a control reaction without SARM1 was measured and subtracted from the + hSARM1 reading and the slope of the linear area was calculated. For the final plot, average of slopes from 3 separate assays for each concentration was calculated.

Nc1ncnc2c1ncn2[C@@H]1O[C@H](COP(=O)(O)OP(=O)(O)OP(=O)(O)O)[C@@H](O)[C@H]1O [ATP]
inhibition of hSARM1 NADase activity (hSARM1 [1]; analyzed as for glycerol, FIG. 7A): inhibits the NADase activity of hSARM1 in a dose-dependent manner

NC(=O)c1ccc[n+]([C@@H]2O[C@H](COP(=O)([O-])OP(=O)(O)OC[C@H]3O[C@@H](n4cnc5c(N)ncnc54)[C@H](O)[C@@H]3O)[C@@H](O)[C@H]2O)c1 [NAD+, Nicotinamide adenine dinucleotide]
pKi (zfSARM1; apparent inhibition by substrate, read-out: Ki for NAD+, zfSARM1): 2.87
pKi (zfSARM1; substrate inhibition equation, read-out: Ki, inhibition by the substrate NAD+, zfSARM1): 2.89
NAD+ concentration at the highest rate of hydrolysis (hSARM1 [2]): 100 µM

OCC(O)CO [glycerol]
inhibition of hSARM1 NADase activity (hSARM1 [1]; 15% glycerol, measured 20 minutes after adding 0.5 μM NAD+): 72%
